In patent US20200190101A1, “Composition Containing Novel Glutamic Acid Derivative And Block Copolymer, And Use Thereof” (Nippon Kayaku Kabushiki Kaisha, priority 2015, published 2020):
Counter-ions that a name gives are not always drawn. Like-named read-outs stand apart in the source and are kept apart here. Values belong to the molecule of their own block, whether it stands above or below them.

What was measured:
[1] = test system: γ-glutamyl transpeptidase (GGT); assay: γ-Glutamyl transpeptidase (GGT) enzyme recognition test; format: biochemical; conditions: 37° C.
Method: To 0.150 mL of this doxorubicin-bonded glutamic acid derivative (prodrug) PBS solution, 0.150 mL of a 2 U/mL GGT solution obtained by dissolving GGT (0.22 mg, 8 U/mg) (Sigma-Aldrich Company) in PBS (0.880 mL) was added, and the mixture was allowed to react at 37° C.
The reaction liquid was analyzed by HPLC, and thus the residual ratio of the doxorubicin-bonded glutamic acid derivative (prodrug) and the production ratio of doxorubicin were determined.
To 0.100 mL of the doxorubicin-bonded glutamic acid derivative PBS solution, 0.100 mL of a 2 U/mL GGT solution obtained by dissolving GGT (0.38 mg, 8 U/mg) (Sigma-Aldrich Company) in PBS (1.520 mL) was added, and the mixture was allowed to react at 37° C. […]

[2] = test system: SK-OV-3 cells having low GGT activity; assay: cells; format: cell-based
Method: (§1) After the cells were incubated for 6 hours, the interior of the wells was washed, and after the cells were further incubated for 3 days, the cells were immobilized with methanol and stained using Methylene Blue dye. After staining, the dye was extracted with a 0.3% aqueous solution of hydrochloric acid was extracted, and the light absorbance at 660 nm was measured. For the light absorbance thus obtained, the cell proliferation suppressive activity was evaluated based on the reduction ratio for the light absorbance measured from cells to which the compound was not added.
(§2) By a similar operation, the cell proliferation suppressive activity was evaluated from the light absorbance, using doxorubicin that was not converted to a glutamic acid derivative. The results are shown in FIG. 1 (OS-RC-2 cells having high GGT activity) and FIG. 2 (SK-OV-3 cells having low GGT activity).
(§3) The cell proliferation inhibitory activity of the EHC-bonded glutamic acid derivative according to Synthesis Example 6 was evaluated using OS-RC-2 cells (RIKEN BioResource Center), which are known to have high GGT activity, and SK-OV-3 cells (American Type Culture Collection), which are known to have low GGT activity.
(§4) On a 96-well plate, OS-RC-2 cells having high GGT activity and SK-OV-3 cells having low GGT activity were each inoculated in an amount of 4,000 cells/well and were incubated for one day at 37° C. and 5% CO2, and then the EHC prodrug according to Synthesis Example 6 was added to the cells at a final concentration of 0.0001 to 1 μM. After the cells were incubated for 6 hours, the interior of the wells was washed, and the cells were further incubated for 3 days. After the incubation, the cells were immobilized with methanol and were stained using Methylene Blue dye. After staining, the dye was extracted with a 0.3% aqueous solution of hydrochloric acid, and the light absorbance at 660 nm was measured. The cell proliferation suppressive activity was evaluated based on the reduction ratio for the light absorbance thus obtained, with respect to the light absorbance measured from cells to which the compound was not added.
(§5) By a similar operation, EHC, which was an active ingredient of Synthesis Example 6, was used without modification, and the cell proliferation suppressive activity was evaluated from the light absorbance.

[3] = test system: OS-RC-2 cells having high GGT activity; assay: cells; format: cell-based, human
Method: as §1, §2, §3, §4, §5

[4] = test system: OS-RC-2 cells having high GGT activity; format: cell-based, human; conditions: GGsTop 10 μM
Method: OS-RC-2 cells were inoculated by a method similar to that of Test Example 3. […] After the cells were incubated for 6 hours, the interior of the wells was washed, and after the cells were further incubated for 3 days, the cell proliferation suppressive activity was evaluated by a method similar to that of Test Example 3.
By a similar operation, the cell proliferation suppressive activity was evaluated using doxorubicin that was not glutamic acid-derivatized, from the light absorbance of the compound.
The GGT activity dependency of the cell proliferation inhibitory activity of the EHC-bonded glutamic acid derivative according to Synthesis Example 6 was evaluated using OS-RC-2 cells having high GGT activity.
OS-RC-2 cells were inoculated by a method similar to that of Test Example 10. After the cells were incubated for one day, GGsTop (Wako Pure Chemical Industries, Ltd.), which is a GGT inhibitor, was added to the cells at a final concentration of 10 μM, and the cells were incubated for one hour. Subsequently, the EHC-bonded glutamic acid derivative according to Synthesis Example 6 was added to the cells at a final concentration of 0.0001 to 1 μM. After the cells were incubated for 6 hours, the interior of the wells was washed, and after the cells were incubated for 3 days, the cell proliferation suppressive activity was evaluated by a method similar to that of Test Example 10.
By a similar operation, the cell proliferation suppressive activity was evaluated using EHC, which is the active ingredient of Synthesis Example 6, from the light absorbance of the compound.

[5] = Phosphate buffered physiological saline (PBS) solution stability test; format: physicochemical; conditions: PBS (DMSO stock), 37° C.
Method: 0.148 mL of the doxorubicin-bonded glutamic acid derivative PBS solution was dissolved in 0.148 mL of a PBS solution, and the solution was allowed to react at 37° C.
PBS (0.100 mL) was added to the EHC-bonded glutamic acid derivative solution (0.100 mL), and the mixture was allowed to react at 37° C. The reaction liquid was analyzed by HPLC, and thereby the residual ratio of the EHC-bonded glutamic acid derivative was determined.
PBS (0.117 mL) was added to the camptothecin-bonded glutamic acid derivative solution (0.117 mL), and the mixture was allowed to react at 37° C. The reaction liquid was analyzed by HPLC, and thereby the residual ratio of the glutamic acid derivative was determined.
The reaction liquid was analyzed by HPLC, and thereby the residual ratio of the EHC-bonded glutamic acid derivative was determined.

[6] = test system: human renal cell cancer OS-RC-2; assay: Test on antitumor effect of Synthesis Example 6, OS-RC-2; format: in vivo, SCID mice; conditions: three times at an interval of 4 days
Method: By an operation similar to that of Test Example 15, to those mice having human renal cell cancer OS-RC-2 transplanted thereinto, the EHC-bonded glutamic acid derivative of Synthesis Example 6 was intravenously administered through the caudal vein, on the 17th day after tumor transplantation, at a dose of 20, 40, or 80 mg/kg three times in total at an interval of 4 days.
(§6) After the administration, the major axis (L) and the minor axis (W) of a tumor were measured using calipers at an interval of 2 to 3 days, the tumor volume was calculated by the formula: (L×W^2)/2, and the tumor volume change rate from the administration initiation day was determined.

[7] = Test on pharmacokinetics of Synthesis Example 6 (tissue AUC, OS-RC-2 tumor-bearing mice); design: species or system SCID mice; conditions: mouse, in vivo
Method: Human renal cell cancer OS-RC-2 tumors that had been subcutaneously subcultured in SCID mice were produced into blocks that measured about 2 mm on each side, and the blocks were subcutaneously transplanted into SCID mice using a trocar.
At time points of 5 minutes, 1 hour, 3 hours, and 6 hours after the administration, various tissues such as blood plasma, liver, bone marrow, and tumor were collected under ether anesthesia. The drug concentrations of EHC as an active drug of Synthesis Example 6, the unchanged drug of Synthesis Example 6, and the unchanged drug of CPT-11 in the various tissues were quantitatively analyzed by a LC-MS/MS method under the following measuring instrument and conditions.
From the concentrations of EHC, the EHC-bonded glutamic acid derivative according to Synthesis Example 6, and CPT-11 in the tissues at various time points, the AUC0-6 hr (μg·hr/mL or g) values of the various components up to 6 hours after the initiation of administration were calculated. As the prodrug activation rates of Synthesis Example 6 and CPT-11 in the various tissues, the AUC0-6 hr ratios of the active drug with respect to the unchanged drug (AUCEHC/AUCSynthesis Example 6 unchanged drug, and AUCEHC/AUCCPT-11) were determined.

[8] = format: in vitro ADME; conditions: 24 h, 0.0856 mg/mL
Method: Mouse blood plasma (0.180 mL) was added to a 0.856 mg/mL DMSO solution of the EHC-bonded glutamic acid derivative of Synthesis Example 6 (0.020 mL), and the mixture was allowed to react at 37° C.
The reaction liquid was analyzed by HPLC, and thereby the residual ratio of the EHC-bonded glutamic acid derivative was determined. 94% of the EHC-bonded glutamic acid derivative prodrug remained after 24 hours.

[9] = test system: human ovarian cancer SHIN-3 tumors; assay: Test on antitumor effect of Synthesis Example 1, SHIN-3 tumors; format: in vivo; conditions: 5 mg/kg i.v., at an interval of 7 days
Method: By an operation similar to that of Test Example 12, human ovarian cancer SHIN-3 tumors were subcutaneously transplanted into SCID mice, and tumor engraftment was confirmed.
as §6

[10] = after 6 hours, 2 mM PBS solution + 2 U/mL GGT solution

Residual ratio of the glutamic acid derivative [1, 10]: 93%
Structure (SMILES): COc1cccc2c1C(=O)c1c(O)c3c(c(O)c1C2=O)C[C@@](O)(C(=O)CO)C[C@@H]3O[C@H]1C[C@H](NC(=O)CC[C@H](N)C(=O)O)[C@H](O)[C@H](C)O1 [Comparative Example 1, (S)-(4-amino-4-carboxybutanamido)doxorubicin, reference compound]

Structure (SMILES): CC[C@@]1(O)C(=O)OCc2c1cc1n(c2=O)Cc2cc3c(NC(=O)CC[C@H](N)C(=O)O)cccc3nc2-1 [Comparative Example 2, 9-((S)-4-amino-4-carboxybutanamido)camptothecin, reference compound]
Residual ratio of the glutamic acid derivative [1, 10]: 99%

Structure (SMILES): CCc1c2c(nc3ccc(O)cc13)-c1cc3c(c(=O)n1C2)COC(=O)[C@]3(O)CC [EHC, 7-ethyl-10-hydroxycamptothecin, reference compound]
Cell proliferation inhibitory activity ([2]; SK-OV-3 cells, 0.01 μM, 6 hours exposure then 3 days incubation): 27.7% | Cell proliferation inhibitory activity ([3]; OS-RC-2 cells, 0.01 μM, 6 hours exposure then 3 days incubation): 26% | Effect of GGT inhibitor on cell proliferation suppressive activity ([4]; compound 0.0001 to 1 μM): did not affect the cell proliferation suppressive activity

Structure (SMILES): CCc1c2c(nc3ccc(OC(=O)OCc4ccc(NC(=O)CC[C@H](N)C(=O)O)cc4)cc13)-c1cc3c(c(=O)n1C2)COC(=O)[C@]3(O)CC [Synthesis Example 2, (((4-((S)-4-amino-4-carboxybutanamido)benzyl)oxy)carbonyl)-10-oxy-7-ethylcamptothecin]
Residual ratio of the glutamic acid derivative in PBS ([5]; after 3.5 hours): 52%

Structure (SMILES): CC[C@@]1(OC(=O)OCc2ccc(NC(=O)CC[C@H](N)C(=O)O)cc2)C(=O)OCc2c1cc1n(c2=O)Cc2cc3ccccc3nc2-1 [Synthesis Example 3, (((4-((S)-4-amino-4-carboxybutanamido)benzyl)oxy)carbonyl)camptothecin]
Residual ratio of the glutamic acid derivative in PBS ([5]; after 3 hours): 74%

Structure (SMILES): COc1cccc2c1C(=O)c1c(O)c3c(c(O)c1C2=O)CC(O)(C(=O)CO)CC3OC1CC(NC(=O)OCc2ccc(NC(=O)CCC(N)C(=O)O)cc2)C(O)C(C)O1 [Synthesis Example 4, (((4-((S)-4-amino-4-carboxybutanamido)benzyl)oxy)carbonyl)epirubicin]
Residual ratio of the glutamic acid derivative [1, 10]: 5%

Residual ratio of the glutamic acid derivative ([1]; after 6.5 hours, 1 mM PBS solution + 2 U/mL GGT solution): 34%
Structure (SMILES): N[C@@H](CCC(=O)Nc1ccc(COC(=O)Nc2ccn([C@@H]3O[C@H](CO)C(O)[C@H]3O)c(=O)n2)cc1)C(=O)O (stereo partly drawn) [Synthesis Example 5, (((4-((S)-4-amino-4-carboxybutanamido)benzyl)oxy)carbonyl)cytarabine]

Structure (SMILES): CCc1c2c(nc3ccc(OCc4ccc(NC(=O)CC[C@H](N)C(=O)O)cc4)cc13)-c1cc3c(c(=O)n1C2)COC(=O)[C@]3(O)CC [Synthesis Example 6, 10-(4-((S)-4-amino-4-carboxybutanamido)benzyloxy)-7-ethylcamptothecin ditrifluoroacetate]
Antitumor effect (relative tumor volume) ([6]; 80 mg/kg-administered group, i.v.): noticeable tumor regression effect | Antitumor effect (relative tumor volume) ([6]; 20, 40, or 80 mg/kg i.v.): dose-dependent antitumor effect | Activation rate AUCEHC/AUC unchanged drug [7]: 0.03-0.16 times | inhibition at 0.01 µM ([2]; Homo sapiens, SK-OV-3, read-out: Cell proliferation inhibitory activity): 1.3% | Residual ratio of the glutamic acid derivative in PBS ([5]; after 24 hours): 90% | Residual ratio of the glutamic acid derivative in mouse blood plasma [8]: 94% | inhibition at 0.01 µM ([3]; Homo sapiens, OS-RC-2, read-out: Cell proliferation inhibitory activity): 25% | Effect of GGT inhibitor on cell proliferation suppressive activity ([4]; compound 0.0001 to 1 μM): inhibited the activity | Disappearance of the glutamic acid derivative and production of EHC by GGT ([1]; 0.34 mg/mL DMSO solution diluted with PBS + 0.227 mg/mL GGT solution): rapidly disappeared in one hour of the reaction and produced EHC

Structure (SMILES): COc1cccc2c1C(=O)c1c(O)c3c(c(O)c1C2=O)C[C@@](O)(C(=O)CO)C[C@@H]3O[C@H]1C[C@H](N)[C@H](O)[C@H](C)O1 [doxorubicin hydrochloride, reference compound]
Toxicity (death of mice) [9]: the mice died after the second administration due to toxicity

Structure (SMILES): COc1cccc2c1C(=O)c1c(O)c3c(c(O)c1C2=O)C[C@@](O)(C(=O)CO)C[C@@H]3O[C@H]1C[C@H](N)[C@H](O)[C@H](C)O1 [doxorubicin, reference compound]
inhibition at 10 µM ([2]; Homo sapiens, SK-OV-3 cells, 10 μM, 6 hours exposure then 3 days incubation, read-out: Cell proliferation inhibitory activity): 77% | inhibition at 10 µM ([3]; Homo sapiens, OS-RC-2 cells, 10 μM, 6 hours exposure then 3 days incubation, read-out: Cell proliferation inhibitory activity): 77% | Effect of GGT inhibitor on cell proliferation suppressive activity ([4]; compound 0.039 to 10 μM): did not affect the cell proliferation suppressive activity
